Patent US6447782B1, “Lipid extract of the Skeletonema algae” (Parfums Christian Dior, priority 1998, dated 2002)

System: 3′,5′-cAMP phosphodiesterase (PDE)
Test: Test for inhibitory activity on PDE (hydrolysis of cAMP to AMP, AMP measured by HPLC)
Assay type: biochemical
Settings: reaction time 5 minutes, lipid extract 0.1% in DMSO, theophylline 0.2% in DMSO
Protocol: The principle of the test is based on the hydrolysis of cyclic 3′5′-adenosine monophosphate(cAMP) to adenosine monophosphate (AMP). The formation of AMP is measured by HPLC (high performance liquid chromatography) analysis.
The solutions of the reagents are prepared in 0.05 M Tris-HCl buffer at pH 7.5.
The lipid extracts to be tested are at a concentration of 0.1% in DMSO.
The same experiment is carried out with the reference active product theophylline (H. Kather, A. Scheurer, Effects of different phosphodiesterase inhibitors on the antilipolytic action of insulin in human adipocytes: Horm. Metabol. Res. 19 (1987) 379-381). Likewise, B. B. Fredholm, E. Lindger, Acta pharmacol. et toxicol., 54 (1984), pp. 64-71, “The effect of alkylxanthines and other phosphodiesterase inhibitors on adenosine receptor mediated decrease in lipolysis and cyclic AMP accumulation in rat fat cells” . . . These tests are reference tests for those skilled in the art.
The theophylline tested (SIGMA/Ref. T1633) is at a concentration of 0.2% in DMSO.
The composition of the reaction media is described below. […]
The amount of AMP formed is measured after a reaction time of 5 minutes by calculating the integration area of the AMP peak on the chromatogram produced by the HPLC apparatus (KONTRON S. A.). […]
The amount of AMP due to the action of PDE is measured after a reaction time of 5 minutes. […]

Cn1c(=O)c2[nH]cnc2n(C)c1=O [Theophylline, theophylline]
A (%) percentage inhibition of PDE: 35%
Integration area of AMP (DMSO control 40.80): 26.52
